One experiment concerns the target PI3Kδ (Homo sapiens (Human), UniProt O00329). Kind of experiment: Inhibition of PI3Kδ efficacy assay (ADP-Glo kinase assay). It is filed as biochemical. The conditions noted are these: read-out: PI3Kδ inhibitory activity (IC50). The method in brief: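 Luminescent ADP-Glo readout of PI3Kδ: after a 60 min RT reaction with PI/ATP substrate, ATP depletion (40 min) and ADP detection (40 min) steps followed. Compounds tested as eight five-fold serial dilutions; inhibition rates fitted to log(inhibitor) vs. response, variable slope, for IC50.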
For orientation: ADP-Glo turns the ADP formed in a reaction into a luminescent signal.

For experiment [1], the system named is MIA PaCa-2 cells (KRAS G12C mutant). Put plainly: MIA PaCa-2 cell anti-proliferation (CellTiter-Glo). Type of experiment: cell-based. The method in brief: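 Viable-cell luminescence (CellTiter-Glo, ≥30 min at 25 °C) measured after a 3-day, 37 °C exposure to compounds at 9 points, 4-fold spaced, in DMEM containing 10% FBS plus 2.5% horse serum. IC50 derived versus no-inhibitor wells.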
(ATP-based viability assays read luminescence as a measure of living cells.)

Experiment [2] relates to NCI-H358-AMGR drug-resistant cell line. Kind of experiment: NCI-H358-AMGR drug-resistant cell proliferation inhibitory activity test. It is filed as cell-based. Particulars: NCI-H358-AMGR drug-resistant cells, 3 days incubation, CellTiter-Glo. The method in brief:
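Luminescent CellTiter-Glo read-out after 3-day, 37° C compound exposure (8 points, 5-fold series) of AMG510-resistant NCI-H358 cells plated at 4×10^3 per well.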

Another experiment deals with KRAS^G12C-SOS1 (Homo sapiens (Human), UniProt P01116, G12C). Kind of experiment: HTRF KRAS G12C/SOS1 binding assay. Particulars: Table 5. The method in brief:
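Compound was serially diluted five-fold over eight points, with a 2 mM DMSO stock. After anti-tag-Tb3+ and anti-tag-XL665 were added, plates were incubated 3 h at 4 °C and read by HTRF (ex 337 nm, em 620/665 nm ratio). IC50 values come from four-parameter variable-slope fits.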
For orientation: In TR-FRET formats the signal depends on donor and acceptor labels being close together.

The target in another experiment is PI3Kα (Homo sapiens (Human), UniProt P42336). Kind of experiment: Inhibition of PI3Kα efficacy assay (ADP-Glo kinase assay). It is filed as biochemical. Particulars: read-out: PI3Kα inhibitory activity (IC50). Summed up: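 ADP-Glo luminescent detection of ADP from PI3Kα acting on PI substrate with ATP, 60 min at RT; compounds in 8-point five-fold serial dilution from 2 mM DMSO stock. IC50 from four-parameter variable-slope fit.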
Sequence of PI3Kα (P42336 whole entry): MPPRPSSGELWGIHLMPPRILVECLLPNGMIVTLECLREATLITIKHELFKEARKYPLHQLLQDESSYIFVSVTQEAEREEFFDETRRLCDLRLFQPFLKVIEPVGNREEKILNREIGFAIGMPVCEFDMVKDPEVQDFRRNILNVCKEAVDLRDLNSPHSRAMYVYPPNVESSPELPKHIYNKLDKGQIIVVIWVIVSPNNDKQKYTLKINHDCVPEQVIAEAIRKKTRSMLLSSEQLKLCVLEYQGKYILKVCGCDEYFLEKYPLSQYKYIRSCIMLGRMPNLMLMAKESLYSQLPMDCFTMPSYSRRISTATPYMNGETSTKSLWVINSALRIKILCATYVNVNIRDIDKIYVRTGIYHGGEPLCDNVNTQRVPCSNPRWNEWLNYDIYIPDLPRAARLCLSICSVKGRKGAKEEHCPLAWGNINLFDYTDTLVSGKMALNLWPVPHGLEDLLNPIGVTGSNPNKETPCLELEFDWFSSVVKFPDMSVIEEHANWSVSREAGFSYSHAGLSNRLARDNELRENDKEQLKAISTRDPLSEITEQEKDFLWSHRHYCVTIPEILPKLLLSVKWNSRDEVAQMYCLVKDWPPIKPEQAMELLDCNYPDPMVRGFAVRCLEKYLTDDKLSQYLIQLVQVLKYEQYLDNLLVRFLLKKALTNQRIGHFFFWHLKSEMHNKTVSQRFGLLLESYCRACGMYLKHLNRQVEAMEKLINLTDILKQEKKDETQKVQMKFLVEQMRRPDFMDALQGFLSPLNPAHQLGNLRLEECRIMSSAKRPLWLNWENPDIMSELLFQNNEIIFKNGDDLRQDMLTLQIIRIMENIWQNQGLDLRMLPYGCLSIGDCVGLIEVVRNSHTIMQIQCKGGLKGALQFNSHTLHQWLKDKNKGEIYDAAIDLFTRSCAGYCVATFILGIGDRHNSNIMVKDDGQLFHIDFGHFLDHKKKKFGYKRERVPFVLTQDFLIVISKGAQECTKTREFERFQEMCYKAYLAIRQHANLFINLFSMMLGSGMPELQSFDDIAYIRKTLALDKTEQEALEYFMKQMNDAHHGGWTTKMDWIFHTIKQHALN
Sequence of PI3Kα (P27986 whole entry partner): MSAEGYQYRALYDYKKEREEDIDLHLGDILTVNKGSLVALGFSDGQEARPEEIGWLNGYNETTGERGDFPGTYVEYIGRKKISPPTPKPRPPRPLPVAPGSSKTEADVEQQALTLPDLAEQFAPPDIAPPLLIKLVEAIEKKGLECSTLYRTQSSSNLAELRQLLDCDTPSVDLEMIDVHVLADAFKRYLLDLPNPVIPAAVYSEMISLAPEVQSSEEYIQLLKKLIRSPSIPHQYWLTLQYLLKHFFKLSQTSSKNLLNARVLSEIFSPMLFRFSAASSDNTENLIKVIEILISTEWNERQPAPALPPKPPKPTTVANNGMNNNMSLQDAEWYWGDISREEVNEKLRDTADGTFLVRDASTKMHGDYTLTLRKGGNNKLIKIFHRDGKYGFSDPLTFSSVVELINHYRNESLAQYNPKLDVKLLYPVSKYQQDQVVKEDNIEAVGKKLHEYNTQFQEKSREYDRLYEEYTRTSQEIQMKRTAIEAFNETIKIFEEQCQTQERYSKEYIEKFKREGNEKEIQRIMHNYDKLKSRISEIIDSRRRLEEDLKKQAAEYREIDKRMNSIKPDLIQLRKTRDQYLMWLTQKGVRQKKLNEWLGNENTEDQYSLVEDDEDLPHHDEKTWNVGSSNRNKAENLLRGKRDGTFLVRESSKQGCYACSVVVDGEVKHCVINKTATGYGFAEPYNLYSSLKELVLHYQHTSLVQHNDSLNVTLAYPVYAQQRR

Where [3] appears, read: Homo sapiens, 72 h, MIA Paca-2 cells, 3 days, Table 7, read-out: MIA PaCa-2 (IC50).

Like-named read-outs stand apart in the source and are kept apart here.

Sequence of PI3Kδ (O00329 whole entry): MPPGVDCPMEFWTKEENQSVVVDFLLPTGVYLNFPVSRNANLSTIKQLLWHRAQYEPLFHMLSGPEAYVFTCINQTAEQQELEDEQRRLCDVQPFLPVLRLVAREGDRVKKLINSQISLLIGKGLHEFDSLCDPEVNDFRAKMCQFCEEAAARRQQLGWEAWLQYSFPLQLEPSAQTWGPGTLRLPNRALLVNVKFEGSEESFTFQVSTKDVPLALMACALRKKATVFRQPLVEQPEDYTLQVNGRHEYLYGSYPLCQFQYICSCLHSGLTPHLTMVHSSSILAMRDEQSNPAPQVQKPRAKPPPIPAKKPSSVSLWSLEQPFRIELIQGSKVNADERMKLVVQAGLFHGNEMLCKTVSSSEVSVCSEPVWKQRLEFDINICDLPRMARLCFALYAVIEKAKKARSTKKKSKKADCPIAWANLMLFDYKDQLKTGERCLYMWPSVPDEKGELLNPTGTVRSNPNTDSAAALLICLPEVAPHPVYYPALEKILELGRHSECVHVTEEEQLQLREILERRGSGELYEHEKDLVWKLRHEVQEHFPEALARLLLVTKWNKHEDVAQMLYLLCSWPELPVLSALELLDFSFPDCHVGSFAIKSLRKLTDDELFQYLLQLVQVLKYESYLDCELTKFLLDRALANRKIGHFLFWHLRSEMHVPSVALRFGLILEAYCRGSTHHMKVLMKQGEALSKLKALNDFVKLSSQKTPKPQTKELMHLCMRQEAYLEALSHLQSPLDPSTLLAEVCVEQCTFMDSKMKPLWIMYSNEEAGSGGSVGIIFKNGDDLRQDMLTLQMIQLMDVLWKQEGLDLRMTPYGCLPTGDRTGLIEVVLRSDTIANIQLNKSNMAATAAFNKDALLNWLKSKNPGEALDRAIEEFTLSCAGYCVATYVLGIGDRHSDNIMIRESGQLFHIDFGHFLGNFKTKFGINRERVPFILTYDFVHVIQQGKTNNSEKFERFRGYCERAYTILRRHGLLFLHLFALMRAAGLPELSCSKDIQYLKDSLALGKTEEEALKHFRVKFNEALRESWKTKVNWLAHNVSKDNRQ
Sequence of PI3Kδ (P27986 whole entry partner): as the sequence (P27986 whole entry partner) above
Sequence of KRAS^G12C-SOS1 (P01116-2 other isoform, or with tags, fused parts or gaps G12C): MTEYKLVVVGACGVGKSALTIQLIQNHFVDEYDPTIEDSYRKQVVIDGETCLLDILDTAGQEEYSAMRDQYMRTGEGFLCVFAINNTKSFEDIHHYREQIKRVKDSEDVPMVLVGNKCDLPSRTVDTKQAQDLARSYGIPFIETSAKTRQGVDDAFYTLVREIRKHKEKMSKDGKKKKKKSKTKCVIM

For `COc1ncc(-c2ccc3ncnc(N4CCN(C(=O)/C=C/C(C)=O)C[C@@H]4C)c3c2)cc1NS(=O)(=O)c1c(F)cccc1F` [Example 46, (S,E)-2,6-difluoro-N-(2-methoxy-5-(4-(2-methyl-4-(4-oxopent-2-enoyl)piperazin-1-yl)quinazolin-6-yl)pyridin-3-yl) benzenesulfonamide], the half-maximal inhibitory concentration (IC50) (usually the concentration needed to halve the response being measured) at PI3Kδ (Table 2) came to 36.3 nM; in experiment [1] (setting [3]) it was 91.9 nM; in experiment [2] (72 h) it was 27.8 nM; on KRAS^G12C-SOS1 it was 166 nM; at PI3Kα (Table 2) it was 1.7 nM.
For `COc1ncc(-c2ccc3ncnc(N4CCC5(CC4)CN(C(=O)/C=C/C(C)=O)C5)c3c2)cc1NS(=O)(=O)c1c(F)cccc1F` [Example 49, (E)-2,6-difluoro-N-(2-methoxy-5-(4-(2-(4-oxopent-2-enoyl)-2,7-diazaspiro[3.5]nonan-7-yl)quinazolin-6-yl)pyridin-3-yl) benzenesulfonamide], in that order: 14.9 nM, 110 nM, 45.5 nM, 225 nM and 2.6 nM.
For `COc1ncc(-c2ccc3ncnc(N4C[C@@H](C)N(C(=O)/C=C/C(C)=O)C[C@@H]4C)c3c2)cc1NS(=O)(=O)c1c(F)cccc1F` [Example 51, N-(5-(4-((2S,5R)-2,5-dimethyl-4-((E)-4-oxopent-2-enoyl)piperazin-1-yl)quinazolin-6-yl)-2-methoxypyridin-3-yl)-2,6-difluorobenzene-sulfonamide], in that order: 19.2 nM, 50.7 nM, 61 nM, 942 nM and 5.6 nM.
The like results for `COc1ncc(-c2ccc3ncnc(N4CCN(C(=O)/C=C/C(C)=O)CC4)c3c2)cc1NS(=O)(=O)c1ccccc1F` [Example 91, (E)-2-fluoro-N-(2-methoxy-5-(4-(4-(4-oxopent-2-enoyl)piperazin-1-yl)quinazolin-6-yl)pyridin-3-yl)benzenesulfonamide] were, in that order, 61.5 nM, 30.7 nM, 83.9 nM, 173 nM and 2.6 nM.
Regarding `COc1ncc(-c2ccc3ncnc(N4CCN(C(=O)/C=C/C(C)=O)CC4)c3c2)cc1NS(=O)(=O)c1ccc(F)cc1` [Example 92, (E)-4-fluoro-N-(2-methoxy-5-(4-(4-(4-oxopent-2-enoyl)piperazin-1-yl)quinazolin-6-yl)pyridin-3-yl)benzenesulfonamide], the IC50 was determined as 51.1 nM on PI3Kδ (Table 2); 31 nM in experiment [1] (setting [3]); 111 nM in experiment [2] (72 h); 369 nM on KRAS^G12C-SOS1; 6.4 nM on PI3Kα (Table 2).
In the case of `COc1ncc(-c2ccc3ncnc(N4CCN(C(=O)/C=C/C(C)=O)CC4)c3c2)cc1NS(=O)(=O)c1ccccc1C` [Example 93, (E)-N-(2-methoxy-5-(4-(4-(4-oxopent-2-enoyl)piperazin-1-yl)quinazolin-6-yl)pyridin-3-yl)-2-methylbenzenesulfonamide], the IC50 amounted to 72.9 nM on PI3Kδ (Table 2); 39.4 nM in experiment [1] (setting [3]); 69.3 nM in experiment [2] (72 h); 344 nM on KRAS^G12C-SOS1; 6 nM at PI3Kα (Table 2).
As for `COc1ncc(-c2ccc3ncnc(N4CCN(C(=O)/C=C/C(C)=O)CC4)c3c2)cc1NS(=O)(=O)c1cc(F)ccc1F` [Example 94, (E)-2,5-difluoro-N-(2-methoxy-5-(4-(4-(4-oxopent-2-enoyl)piperazin-1-yl)quinazolin-6-yl)pyridin-3-yl)benzenesulfonamide], the IC50 at PI3Kδ (Table 2) was 56.7 nM; in experiment [1] (setting [3]) it was 65.9 nM; in experiment [2] (72 h), 65.2 nM; at KRAS^G12C-SOS1 it was 189 nM; at PI3Kα (Table 2), 11 nM.
Consider `COc1ncc(-c2ccc3ncnc(N4CCN(C(=O)/C=C/C(C)=O)CC4)c3c2)cc1NS(=O)(=O)c1c(F)cc(F)cc1F` [Example 99, (E)-2,4,6-trifluoro-N-(2-methoxy-5-(4-(4-(4-oxopent-2-enoyl)piperazin-1-yl)quinazolin-6-yl)pyridin-3-yl)benzenesulfonamide], for which the IC50 on PI3Kδ (Table 2) was determined as 7.9 nM; in experiment [1] (setting [3]) it was 16.7 nM; in experiment [2] (72 h), 65.2 nM; on KRAS^G12C-SOS1 it was 188 nM; at PI3Kα (Table 2), 6 nM.
Take `COc1ncc(-c2ccc3ncnc(N4CCC5(CC4)CN(C(=O)/C=C/C(C)=O)C5)c3c2)cc1NS(=O)(=O)c1c(F)cc(F)cc1F` [Example 101, (E)-2,4,6-trifluoro-N-(2-methoxy-5-(4-(2-(4-oxopent-2-enoyl)-2,7-diazaspiro[3.5]nonan-7-yl)quinazolin-6-yl)pyridin-3-yl)benzenesulfonamide]: the IC50 at PI3Kδ (Table 2) amounted to 33.6 nM; in experiment [1] (setting [3]), 11.6 nM; in experiment [2] (72 h) it was 28.3 nM; at KRAS^G12C-SOS1, 198 nM; on PI3Kα (Table 2), 9.9 nM.
For `COc1ncc(-c2ccc3ncnc(N4CCN(C(=O)/C=C/C(C)=O)CC4)c3c2)cc1NS(=O)(=O)c1c(F)cncc1F` [Example 102, (E)-3,5-difluoro-N-(2-methoxy-5-(4-(4-(4-oxopent-2-enoyl)piperazin-1-yl)quinazolin-6-yl)pyridin-3-yl)pyridine-4-sulfonamide], the IC50 on PI3Kδ (Table 2) amounted to 32.8 nM; in experiment [1] (setting [3]) it was 142 nM; in experiment [2] (72 h) it was 516 nM; on KRAS^G12C-SOS1 it was 141 nM; on PI3Kα (Table 2) it was 1.2 nM.
For `CCOc1ncc(-c2ccc3ncnc(N4CCN(C(=O)/C=C/C(C)=O)CC4)c3c2)cc1NS(=O)(=O)c1ccc(F)cc1F` [Example 109, (E)-N-(2-ethoxy-5-(4-(4-(4-oxopent-2-enoyl)piperazin-1-yl)quinazolin-6-yl)pyridin-3-yl)-2,4-difluorobenzenesulfonamide], in that order: 48.9 nM, 94.2 nM, 113 nM, 499 nM and 3.5 nM.
`COc1ncc(-c2ccc3ncnc(N4CCN(C(=O)/C=C/C(C)=O)CC4)c3c2)cc1NS(=O)(=O)c1ccc(C)cc1F` [Example 111]: the concentration for half-maximal inhibition (IC50) at PI3Kδ (Table 2) was found to be 23.2 nM; in experiment [1] (MIA Paca-2 cells, 3 days, Table 7, read-out: MIA PaCa-2 (IC50)), 44.4 nM; in experiment [2] it was 118 nM; at KRAS^G12C-SOS1, 364 nM; at PI3Kα (Table 2) it was 8.8 nM.
Take `COc1ncc(-c2ccc3ncnc(N4CCN(C(=O)/C=C/C(C)=O)[C@@H](CC#N)C4)c3c2)cc1NS(=O)(=O)c1c(F)cccc1F` [Example 116, (S,E)-N-(5-(4-(3-(cyanomethyl)-4-(4-oxopent-2-enoyl)piperazin-1-yl)quinazolin-6-yl)-2-methoxypyridin-3-yl)-2,6-difluorobenzenesulfonamide]: the IC50 at PI3Kδ (Table 2) stood at 27 nM; in experiment [1] (setting [3]) it was 107 nM; in experiment [2] (72 h) it was 232 nM; on KRAS^G12C-SOS1, 1570 nM; at PI3Kα (Table 2), 1.8 nM.
For the molecule `COc1ncc(-c2ccc3ncnc(N4CCN(C(=O)/C=C/C(C)=O)CC4)c3c2)cc1NS(=O)(=O)c1c(F)cccc1C#N` [Example 122, (E)-2-cyano-6-fluoro-N-(2-methoxy-5-(4-(4-(4-oxopent-2-enoyl)piperazin-1-yl)quinazolin-6-yl)pyridin-3-yl)benzenesulfonamide], the IC50 on PI3Kδ (Table 2) was determined as 4.7 nM; in experiment [1] (Homo sapiens, MIA PaCa-2, 72 h, read-out: MIA PaCa-2 (IC50, nM)), 106 nM; in experiment [2] (72 h), 128 nM; at KRAS^G12C-SOS1, 145 nM; on PI3Kα (Table 2), 8.1 nM.
Take `COc1ncc(-c2ccc3ncnc(N4CCN(C(=O)/C=C/C(C)=O)CC4)c3c2)cc1NS(=O)(=O)c1ccc(C(F)(F)F)cc1F` [Example 124, (E)-2-fluoro-N-(2-methoxy-5-(4-(4-(4-oxopent-2-enoyl)piperazin-1-yl)quinazolin-6-yl)pyridin-3-yl)-4-(trifluoromethyl)benzenesulfonamide]: the IC50 at PI3Kδ (Table 2) was 61.4 nM; in experiment [1] (setting [3]), 58.4 nM; in experiment [2] (72 h) it was 85.5 nM; on KRAS^G12C-SOS1, 730 nM; on PI3Kα (Table 2), 4.4 nM.
Turning to `COc1ncc(-c2ccc3ncnc(N4CCN(C(=O)/C=C/C(C)=O)CC4)c3n2)cc1NS(=O)(=O)c1c(F)cccc1F` [Example 131, (E)-2,6-difluoro-N-(2-methoxy-5-(4-(4-(4-oxopent-2-enoyl)piperazin-1-yl)pyrido[3,2-d]pyrimidin-6-yl)pyridin-3-yl)benzenesulfonamide], the IC50 at PI3Kδ (Table 3) is 13.7 nM; in experiment [1] (setting [3]), 25 nM; in experiment [2] (72 h), 19.1 nM; at KRAS^G12C-SOS1, 200 nM; at PI3Kα (Table 3), 1.6 nM.
